We go through 23 molecules from ChEMBL document CHEMBL3044679, “Synthesis and biological evaluation of some stilbene derivatives” (Med Chem Res, 2011).

What all share (assay type): functional, cell-based
For one experiment, the system named is MOLT-4. Nature of the experiment: Cytostatic activity against Homo sapiens (human) Molt4/C8 cells after 72 hr by coulter counter analysis. As to conditions: MOLT-4, 72 h.
Another experiment deals with CCRF-CEM. Nature of the experiment: Cytostatic activity against Homo sapiens (human) CEM cells after 72 hr by coulter counter analysis.
The test system of another experiment is L1210. Nature of the experiment: Cytostatic activity against Mus musculus (mouse) L1210 cells after 48 hr by coulter counter analysis. The following applies: L1210, 48 h.

Values after ≈ are worked out from the molar mass of the structure shown.

`O=C(O)/C(=C/c1ccccc1Cl)c1ccccc1`: the half-maximal inhibitory concentration (IC50) was determined as 37 µg/mL (≈ 143 µM) in the experiment with MOLT-4, 93 µg/mL (≈ 359 µM) in the experiment on CCRF-CEM and 76 µg/mL (≈ 294 µM) in the experiment on L1210.
Taken in the same sequence, the figures for `O=C(O)/C(=C/c1ccccc1F)c1ccccc1` were 89 µg/mL (≈ 367 µM), greater than 200 µg/mL and greater than 200 µg/mL.
As to `CNC(=O)/C(=C/c1ccccc1Cl)c1ccccc1`, the IC50 stood at 77 µg/mL (≈ 283 µM) with MOLT-4, 60 µg/mL (≈ 221 µM) in the experiment with CCRF-CEM and 65 µg/mL (≈ 239 µM) in the experiment on L1210.
In the case of `CNC(=O)/C(=C/c1ccc(OC)cc1)c1ccccc1`, the results for the IC50 with MOLT-4, in the experiment on CCRF-CEM and in the experiment on L1210 were 166 µg/mL (≈ 621 µM), 128 µg/mL (≈ 479 µM) and 68 µg/mL (≈ 254 µM), respectively.
Taken in the same sequence, the figures for `CCN(CC)C(=O)/C(=C/c1ccccc1Cl)c1ccccc1` were 14 µg/mL (≈ 44.6 µM), 18 µg/mL (≈ 57.4 µM) and 24 µg/mL (≈ 76.5 µM).
Regarding `CCNC(=O)/C(=C/c1ccccc1)c1ccccc1`, the IC50 in the experiment with MOLT-4 is 112 µg/mL (≈ 446 µM); in the experiment with CCRF-CEM, 26 µg/mL (≈ 103 µM); in the experiment with L1210 it was 132 µg/mL (≈ 525 µM).
The matching figures for `CCNC(=O)/C(=C/c1ccc(OC)cc1)c1ccccc1`: 150 µg/mL (≈ 533 µM), 116 µg/mL (≈ 412 µM) and 148 µg/mL (≈ 526 µM).
Turning to `CNC(=O)/C(=C/c1ccccc1F)c1ccccc1`, the half-maximal inhibitory concentration (IC50) with MOLT-4 was found to be 72 µg/mL (≈ 282 µM); in the experiment with CCRF-CEM, 89 µg/mL (≈ 349 µM); with L1210, 85 µg/mL (≈ 333 µM).
Turning to `CNC(=O)/C(=C/c1ccccc1O)c1ccccc1`, the IC50 in the experiment on MOLT-4, in the experiment with CCRF-CEM and in the experiment on L1210 was greater than 200 µg/mL in each case.
On to `COC(=O)/C(=C/c1ccccc1Cl)c1ccccc1`, for which the results for the half-inhibitory concentration (IC50) in the experiment with MOLT-4, with CCRF-CEM and in the experiment on L1210 were 16 µg/mL (≈ 58.7 µM), 19 µg/mL (≈ 69.7 µM) and 25 µg/mL (≈ 91.7 µM), respectively.
Turning to `COC(=O)/C(=C/c1ccc(OC)cc1)c1ccccc1`, the IC50 stood at 71 µg/mL (≈ 265 µM) in the experiment with MOLT-4, 71 µg/mL (≈ 265 µM) in the experiment on CCRF-CEM and 66 µg/mL (≈ 246 µM) in the experiment on L1210.
As for `Fc1ccc(/N=C/c2ccccc2Cl)cc1Cl`, the IC50 in the experiment with MOLT-4 was 3.9 µg/mL (≈ 14.5 µM); in the experiment on CCRF-CEM, 10 µg/mL (≈ 37.3 µM); in the experiment on L1210, 6.4 µg/mL (≈ 23.9 µM).
In the case of `Fc1ccc(/N=C/c2ccccc2Cl)cc1`, the IC50 in the experiment with MOLT-4 stood at 0.77 µg/mL (≈ 3.3 µM); in the experiment on CCRF-CEM, 2.1 µg/mL (≈ 8.99 µM); in the experiment on L1210, 6 µg/mL (≈ 25.7 µM).
As to `Clc1ccccc1/C=N/c1ccc(Br)cc1`, the values for the IC50 in the experiment with MOLT-4, with CCRF-CEM and with L1210 were 1.5 µg/mL (≈ 5.09 µM), 4.5 µg/mL (≈ 15.3 µM) and 2.1 µg/mL (≈ 7.13 µM), respectively.
The matching figures for `Fc1ccc(/N=C/c2cccs2)cc1Cl`: 16 µg/mL (≈ 66.7 µM), 25 µg/mL (≈ 104 µM) and 3.2 µg/mL (≈ 13.3 µM).
As to `COc1ccc(/C=C/c2ccc(F)cc2)cc1`, the results for the IC50 in the experiment on MOLT-4, in the experiment on CCRF-CEM and in the experiment on L1210 were greater than 200 µg/mL, 156 µg/mL (≈ 683 µM) and 26 µg/mL (≈ 114 µM), respectively.
Turning to `Fc1ccc(/C=C/c2ccccc2F)cc1`, the half-inhibitory concentration (IC50) in the experiment on MOLT-4 is 61 µg/mL (≈ 282 µM); with CCRF-CEM it was 83 µg/mL (≈ 384 µM); in the experiment on L1210 it was 62 µg/mL (≈ 287 µM).
As for `Cc1ccc(/C=C/c2ccccc2F)cc1`, the half-inhibitory concentration (IC50) with MOLT-4 was determined as 30 µg/mL (≈ 141 µM); in the experiment on CCRF-CEM, 78 µg/mL (≈ 367 µM); with L1210 it was 72 µg/mL (≈ 339 µM).
As to `Fc1ccc(/C=C/c2ccccc2)cc1`, the IC50 with MOLT-4, with CCRF-CEM and with L1210 was greater than 200 µg/mL throughout.
For `COc1ccc(/C=C/c2ccc(C)cc2)cc1`, the IC50 with MOLT-4, with CCRF-CEM and in the experiment with L1210 was greater than 200 µg/mL each time.
Consider `O=C(O)/C(=C/c1ccccc1O)c1ccccc1`, for which the IC50 in the experiment with MOLT-4, in the experiment with CCRF-CEM and in the experiment on L1210 was greater than 200 µg/mL throughout.
As for `Cc1ccc(/C=C/c2ccc(N(C)C)cc2)cc1`, the IC50 was greater than 200 µg/mL in the experiment with MOLT-4, greater than 200 µg/mL with CCRF-CEM and 143 µg/mL (≈ 602 µM) in the experiment on L1210.
As for `N[C@@H](Cc1ccc(N(CCCl)CCCl)cc1)C(=O)O` [MELPHALAN], the 50% inhibitory concentration (IC50) came to 3.2 µg/mL (≈ 10.5 µM) in the experiment on MOLT-4, 2.5 µg/mL (≈ 8.19 µM) in the experiment on CCRF-CEM and 2.1 µg/mL (≈ 6.88 µM) in the experiment on L1210.

As usually defined, the IC50 is the point on the concentration scale where inhibition reaches its midpoint.
